# In US10676467B2 (Washington University, priority 2017, dated 2020):
# Structures can show the parent of a compound that is named as a salt. Where two headings read alike, the source gives them in different places.
# Target: recombinant human S1P1 (Homo sapiens (Human), UniProt P21453)
# Assay: [32P]S1P competitive binding assay on cell membranes
# Details: for IC50: read-out: S1P1 IC50 ± SD; for Fold decrease of S1P1 binding potency compared to 8c: vs 8c
# [1] = competition against [32P]S1P, membranes with recombinant human S1P1, mean ± SD
# Experimental: Competitive binding was performed for 60 min at room temperature and terminated by collecting the membranes onto 96-well glass fiber (GF/B) filtration plates (Millipore, Billerica, Mass.). Each filter was washed with 200 μL of assay buffer for five times. The filter bound radionuclide was measured by a Beckman LS3801 scintillation counter using Cherenkov counting. The reported IC50 values were calculated using the 4 parameter equation, least-square non-linear regression curve-fit, with GraphPad Prism software (GraphPad Software, Inc). Each assay was repeated at least three times with duplicate wells for each compound; the reported values (mean±SD, nM) are calculated from the average of all assays.
# Sequence of recombinant human S1P1 (P21453 whole entry): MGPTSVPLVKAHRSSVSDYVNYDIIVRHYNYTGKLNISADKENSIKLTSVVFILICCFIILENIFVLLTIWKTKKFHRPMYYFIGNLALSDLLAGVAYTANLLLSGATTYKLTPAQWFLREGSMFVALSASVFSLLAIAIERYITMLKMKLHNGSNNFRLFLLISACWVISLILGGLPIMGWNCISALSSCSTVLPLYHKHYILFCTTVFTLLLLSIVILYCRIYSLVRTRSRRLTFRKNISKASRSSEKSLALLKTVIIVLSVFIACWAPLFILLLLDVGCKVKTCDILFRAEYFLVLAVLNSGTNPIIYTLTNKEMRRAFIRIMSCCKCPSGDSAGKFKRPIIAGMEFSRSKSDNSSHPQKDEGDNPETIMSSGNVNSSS
IC50 [1] [nM],Structure (SMILES),further results
> 1000,"OCc1ccc(-c2noc(-c3ccc(OCCF)cc3)n2)cc1 [Compound 8a, (4-(5-(4-(2-Fluoroethoxy)phenyl)-1,2,4-oxadiazol-3-yl)phenyl)methanol]",–
15.4 ± 3.8,N#Cc1cc(-c2nc(-c3ccc(CO)cc3)no2)ccc1OCCF [Compound 8b],Fold decrease of S1P1 binding potency compared to 8c: 2 fold
59.6,OCCNCc1ccc(-c2noc(-c3ccc(OCCF)c(C(F)(F)F)c3)n2)cc1 [Compound 8e],–
48.2,"CN(CCO)Cc1ccc(-c2noc(-c3ccc(OCCF)c(C(F)(F)F)c3)n2)cc1 [Compound 8f, 2-((4-(5-(4-(2-Fluoroethoxy)-3-(trifluoromethyl)phenyl)-1,2,4-oxadiazol-3-yl)benzyl)(methyl)amino)ethan-1-ol]",–
23.8,OCC(O)c1ccc(-c2noc(-c3ccc(OCCF)c(C(F)(F)F)c3)n2)cc1 (stereo not drawn) [Compound 8k],Fold decrease of S1P1 binding potency compared to 8c: 4 fold
87.2 ± 17.7,"OCC(CO)NCc1ccc(-c2noc(-c3ccc(OCCF)c(C(F)(F)F)c3)n2)cc1 [Compound 10a, 2-((4-(5-(4-(2-Fluoroethoxy)-3-(trifluoromethyl)phenyl)-1,2,4-oxadiazol-3-yl)benzyl)amino)propane-1,3-diol]",–
–,OCC1CN(Cc2ccc(-c3noc(-c4ccc(OCCF)c(C(F)(F)F)c4)n3)cc2)C1 [Compound 10b],"IC50 (competition against [32P]S1P, membranes with recombinant human S1P1, mean ± SD, listed as TZ-48-16): 125 ± 27 nM; IC50: > 100 nM"
106,OCCOCCOCCOCc1ccc(-c2noc(-c3ccc(OCCF)c(C(F)(F)F)c3)n2)cc1 [Compound 12c],–
125 ± 22,"OCCOCCOCCOCCOCc1ccc(-c2noc(-c3ccc(OCCF)c(C(F)(F)F)c3)n2)cc1 [Compound 12d, 1-(4-(5-(4-(2-Fluoroethoxy)-3-(trifluoromethyl)phenyl)-1,2,4-oxadiazol-3-yl)phenyl)-2,5,8,11-tetraoxatridecan-13-ol]",–
75.6,OCCNCCOCc1ccc(-c2noc(-c3ccc(OCCF)c(C(F)(F)F)c3)n2)cc1 [Compound 12f],–
130,CN(CCO)CCOCc1ccc(-c2noc(-c3ccc(OCCF)c(C(F)(F)F)c3)n2)cc1 [Compound 12g],–
–,"NC(=O)c1ccc(-c2noc(-c3ccc(OCCF)c(C(F)(F)F)c3)n2)cc1 [Compound 19b, 4-(5-(4-(2-Fluoroethoxy)-3-(trifluoromethyl)phenyl)-1,2,4-oxadiazol-3-yl)benzamide]","IC50 (competition against [32P]S1P, membranes with recombinant human S1P1, mean ± SD, listed as TZ-43-77): 67 ± 12.6 nM"
–,"CS(=O)(=O)NCc1ccc(-c2noc(-c3ccc(OCCF)c(C(F)(F)F)c3)n2)cc1 [Compound 19c, N-(4-(5-(4-(2-Fluoroethoxy)-3-(trifluoromethyl)phenyl)-1,2,4-oxadiazol-3-yl)benzyl)methanesulfonamide]","IC50 (competition against [32P]S1P, membranes with recombinant human S1P1, mean ± SD, listed as TZ-43-102): 40 ± 17.8 nM"
> 1000,"O=C(O)c1ccc(-c2noc(-c3ccc(OCCF)c(C(F)(F)F)c3)n2)cc1 [Compound 20a, 4-(5-(4-(2-Fluoroethoxy)-3-(trifluoromethyl)phenyl)-1,2,4-oxadiazol-3-yl)benzoic acid]",–
272 ± 65,"O=C(NO)c1ccc(-c2noc(-c3ccc(OCCF)c(C(F)(F)F)c3)n2)cc1 [Compound 20b, 4-(5-(4-(2-Fluoroethoxy)-3-(trifluoromethyl)phenyl)-1,2,4-oxadiazol-3-yl)-N-hydroxybenzamide]",Fold increased S1P1 IC50 compared to 19b (vs 19b): 4 fold
–,"O=C(O)c1cn(Cc2ccc(-c3noc(-c4ccc(OCCF)c(C(F)(F)F)c4)n3)cc2)nn1 [Compound 22a, 1-(4-(5-(4-(2-Fluoroethoxy)-3-(trifluoromethyl)phenyl)-1,2,4-oxadiazol-3-yl)benzyl)-1H-1,2,3-triazole-4-carbox-ylic acid]",IC50: 341 nM; Fold increased S1P1 IC50 compared to compound 4 (vs compound 4 (2.6 nM)): 130 fold
182 ± 75.3,CCOc1cc(-c2nc(-c3ccncc3)no2)ccc1OCCF [TZ-14-50],–

Structure (SMILES),IC50 [1] [nM],further results
CN(Cc1ccc(-c2noc(-c3ccc(OCCF)c(C(F)(F)F)c3)n2)cc1)CC(O)CO (stereo not drawn) [Compound 8g],38,–
"NCc1ccc(-c2noc(-c3ccc(OCCF)c(C(F)(F)F)c3)n2)cc1 [Compound 31a, (4-(5-(4-(2-Fluoroethoxy)-3-(trifluoromethyl)phenyl)-1,2,4-oxadiazol-3-Ophenyl)methanamine hydrochloride]",34.2 ± 7.1,–
